Laboratory results as given in patent publication US20080161249A1, “Use of Novel Antibacterial Compounds” (SMITHKLINE BEECHAM CORPORATION, priority 2004, published 2008).
In brackets after ≈: the same amount, converted by molar mass. Like-named read-outs stand apart in the source and are kept apart here.

Experiments:
[1] = test system: S. pneumoniae 1629; assay: MIC against S. pneumoniae 1629, alone and with subinhibitory concentrations of a second agent; format: cell-based, Streptococcus pneumoniae; settings: for Compound (1b) fold decrease MIC / MIC, antibiotic with 0.06 ug/mL (¼ MIC) of Compound (1b) / MIC, antibiotic alone / fold decrease MIC, antibiotic with 0.06 ug/mL (¼ MIC) of Compound (1b) / MIC, antibiotic with […] (½ MIC) of Compound (1b) / fold decrease MIC, antibiotic with […] (½ MIC) of Compound (1b): S. pneumoniae 1629; for MIC: Streptococcus pneumoniae, 1629, S. pneumoniae 1629; for MIC, antibiotic with 0.06 ug/mL (¼ MIC) of Compound (1b) / fold decrease MIC, antibiotic with 0.06 ug/mL (¼ MIC) of Compound (1b): +0.06 ug/mL Compound (1b); for MIC, antibiotic alone: single agent
[2] = test system: H. influenzae Q1; assay: MIC against H. influenzae Q1, alone and with subinhibitory concentrations of a second agent; format: cell-based, Haemophilus influenzae;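 also: combinations paired PDF inhibitors with macrolides, one class added below its own MIC to test whether the MIC of the other class dropped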
[3] = test system: S. aureus WCUH29; assay: MIC against S. aureus WCUH29, alone and with subinhibitory concentrations of a second agent; format: cell-based, Staphylococcus aureus; settings: for MIC, antibiotic with 1 ug/mL (½ MIC) of Compound (1a) / MIC, antibiotic alone / MIC, antibiotic with 0.5 ug/mL (¼ MIC) of Compound (1a) / fold decrease MIC, antibiotic with 0.5 ug/mL (¼ MIC) of Compound (1a) / fold decrease MIC, antibiotic with 1 ug/mL (½ MIC) of Compound (1a): S. aureus WCUH29; for MIC, antibiotic with 1 ug/mL (½ MIC) of Compound (1a) / fold decrease MIC, antibiotic with 1 ug/mL (½ MIC) of Compound (1a): +1 ug/mL Compound (1a); for MIC, antibiotic alone: single agent; for decrease of MIC by subinhibitory concentrations of Compound (1a): S. aureus, Example 3; for MIC: Staphylococcus aureus, WCUH29, S. aureus WCUH29, no second agent, read-out: MIC, single agent; for MIC, antibiotic with 0.5 ug/mL (¼ MIC) of Compound (1a) / fold decrease MIC, antibiotic with 0.5 ug/mL (¼ MIC) of Compound (1a): +0.5 ug/mL Compound (1a)
[4] = test system: S. aureus strain Oxford; assay: MIC against S. aureus strain Oxford, alone and in combination; format: cell-based, Staphylococcus aureus
From the text: (§1) Subinhibitory Concentrations of PDF Inhibitors Decrease the MICs of Macrolides against Representative S. aureus Strains
(§2) Subinhibitory Concentrations of Macrolides Decrease the MICs of PDF Inhibitors against Representative S. aureus Strains

[5] = test system: S. aureus strain Smith; assay: MIC against S. aureus strain Smith, alone and in combination; format: cell-based, Staphylococcus aureus
[6] = test system: S. aureus strain RN4220; assay: MIC against S. aureus strain RN4220, alone and in combination; format: cell-based, Staphylococcus aureus
[7] = test system: S. aureus strain PK1; assay: MIC against S. aureus strain PK1, alone and in combination; format: cell-based, Staphylococcus aureus
From the text: as §1, §2

[8] = no second agent, read-out: MIC, single agent
[9] = H. influenzae Q1, +0.5 ug/mL Compound (1a)
[10] = H. influenzae Q1, +1 ug/mL Compound (1a)
[11] = H. influenzae Q1, single agent (Example 7)
[12] = Staphylococcus aureus, macrolide alone, read-out: MIC, −Compound (1a)
[13] = H. influenzae Q1, +0.25 ug/m Azithromycin
[14] = H. influenzae Q1, +0.5 ug/mL Azithromycin

MIC [1, 8] | decrease of MIC by subinhibitory concentrations of Compound (1b) ([1]; S. pneumoniae) | MIC, antibiotic with 0.06 ug/mL (¼ MIC) of Compound (1b) [1] | MIC, antibiotic alone [1] | MIC, antibiotic with 0.5 ug/mL (¼ MIC) of Compound (1a) [2, 9] | MIC, antibiotic with 1 ug/mL (½ MIC) of Compound (1a) [2, 10] | MIC, antibiotic alone [2, 11] | MIC, antibiotic with 1 ug/mL (½ MIC) of Compound (1a) [3] | MIC, antibiotic alone [3] | decrease of MIC by subinhibitory concentrations of Compound (1a) [3] | MIC [3] | fold decrease MIC, antibiotic with 0.06 ug/mL (¼ MIC) of Compound (1b) [1] | MIC, antibiotic with […] (½ MIC) of Compound (1b) [1] | fold decrease MIC, antibiotic with […] (½ MIC) of Compound (1b) [1] | MIC, antibiotic with 0.5 ug/mL (¼ MIC) of Compound (1a) [3] | fold decrease MIC, antibiotic with 0.5 ug/mL (¼ MIC) of Compound (1a) [3] | fold decrease MIC, antibiotic with 1 ug/mL (½ MIC) of Compound (1a) [3] | SMILES | further results
0.25 µg/mL (≈ 0.543 µM) |  |  |  |  |  |  |  |  |  |  |  |  |  |  |  |  | O=CN(O)C[C@@H](CC1CCCC1)C(=O)NNc1nc(N2CCOCC2)cc(C(F)(F)F)n1 [Compound (1b), N-hydroxy-N-((2R)-2-(cyclopentylmethyl)-3-{N′-[4-(morpholin-4-yl)-6-(trifluoromethyl)-pyrimidin-2-yl]-hydrazino}-3-oxopropyl)-formamide] | decrease of MIC by subinhibitory concentrations of azithromycin ([1]; S. pneumoniae): 4-16 fold; decrease of MIC by subinhibitory concentrations of erythromycin ([1]; S. pneumoniae): 8-32 fold; effect of subinhibitory concentrations of ciprofloxacin on antibacterial potency ([1]; S. pneumoniae): no effect; effect of subinhibitory concentrations of mupirocin on antibacterial potency ([1]; S. pneumoniae): no effect; Compound (1b) fold decrease MIC ([1]; +Azithromycin 0.008 μg/ml {¼ × MIC}): [4] fold; Compound (1b) fold decrease MIC ([1]; +Azithromycin […] {½ × MIC}): [16] fold; Compound (1b) fold decrease MIC ([1]; +Ciprofloxacin 0.25 μg/ml {½ × MIC}): [0] fold; Compound (1b) fold decrease MIC ([1]; +Ciprofloxacin […] {¼ × MIC}): [0] fold; Compound (1b) fold decrease MIC ([1]; +Erythromycin 0.008 μg/ml {¼ × MIC}): [8] fold; Compound (1b) fold decrease MIC ([1]; +Erythromycin […] {½ × MIC}): [32] fold; Compound (1b) fold decrease MIC ([1]; +Mupirocin 0.25 μg/ml {½ × MIC}): [0] fold; Compound (1b) fold decrease MIC ([1]; +Mupirocin […] {¼ × MIC}): [0] fold; MIC ([1]; +Azithromycin 0.008 μg/ml {¼ × MIC}, read-out: Compound (1b) MIC): 0.06 µg/mL (≈ 0.13 µM); MIC ([1]; +Azithromycin […] {½ × MIC}, read-out: Compound (1b) MIC): 0.016 µg/mL (≈ 0.0347 µM); MIC ([1]; +Ciprofloxacin 0.25 μg/ml {½ × MIC}, read-out: Compound (1b) MIC): 0.25 µg/mL (≈ 0.543 µM); MIC ([1]; +Ciprofloxacin […] {¼ × MIC}, read-out: Compound (1b) MIC): 0.25 µg/mL (≈ 0.543 µM); MIC ([1]; +Erythromycin 0.008 μg/ml {¼ × MIC}, read-out: Compound (1b) MIC): 0.03 µg/mL (≈ 0.0652 µM); MIC ([1]; +Erythromycin […] {½ × MIC}, read-out: Compound (1b) MIC): 0.008 µg/mL (≈ 0.0174 µM); MIC ([1]; +Mupirocin 0.25 μg/ml {½ × MIC}, read-out: Compound (1b) MIC): 0.25 µg/mL (≈ 0.543 µM); MIC ([1]; +Mupirocin […] {¼ × MIC}, read-out: Compound (1b) MIC): 0.25 µg/mL (≈ 0.543 µM)
0.03 µg/mL (≈ 0.0409 µM) | 4-16 fold | 0.008 µg/mL | 0.03 µg/mL (≈ 0.0409 µM) | 2 µg/mL | 1 µg/mL | 8 µg/mL (≈ 10.9 µM) | 0.016 µg/mL | 0.25 µg/mL (≈ 0.341 µM) | 2-16 fold | 0.25 µg/mL (≈ 0.341 µM) |  |  |  |  |  |  | CC[C@H]1OC(=O)[C@H](C)[C@@H](O[C@H]2C[C@@](C)(OC)[C@@H](O)[C@H](C)O2)[C@H](C)[C@@H](O[C@@H]2O[C@H](C)C[C@H](N(C)C)[C@H]2O)[C@](C)(O)C[C@@H](C)C(=O)[C@H](C)[C@@H](O)[C@]1(C)O [Erythromycin, erythromycin] | 
0.5 µg/mL (≈ 1.51 µM) | no effect | 0.5 µg/mL | 0.5 µg/mL (≈ 1.51 µM) | 0.008 µg/mL | 0.008 µg/mL | 0.008 µg/mL (≈ 0.0241 µM) | 0.25 µg/mL | 0.25 µg/mL (≈ 0.754 µM) | no effect | 0.25 µg/mL (≈ 0.754 µM) | [0] fold | 0.5 µg/mL | [0] fold | 0.25 µg/mL | [0] fold | [0] fold | O=C(O)c1cn(C2CC2)c2cc(N3CCNCC3)c(F)cc2c1=O [Ciprofloxacin, ciprofloxacin] | fold decrease MIC, antibiotic with 0.5 ug/mL (¼ MIC) of Compound (1a) [2, 9]: [0] fold; fold decrease MIC, antibiotic with 1 ug/mL (½ MIC) of Compound (1a) [2, 10]: [0] fold; decrease of MIC by subinhibitory concentrations of Compound (1a) ([2]; H. influenzae, text summary of Example 7): no effect
0.5 µg/mL (≈ 0.999 µM) | no effect | 0.5 µg/mL | 0.5 µg/mL (≈ 0.999 µM) |  |  |  | 0.125 µg/mL | 0.125 µg/mL (≈ 0.25 µM) | no effect |  | [0] fold | 0.5 µg/mL | [0] fold | 0.125 µg/mL | [0] fold | [0] fold | C/C(=C\C(=O)OCCCCCCCCC(=O)O)C[C@@H]1OC[C@H](C[C@@H]2O[C@H]2[C@@H](C)[C@H](C)O)[C@@H](O)[C@H]1O [Mupirocin, mupirocin] | 
 |  |  |  |  |  |  |  |  |  |  |  |  |  |  |  |  | CCCCC[C@H](CN(O)C=O)C(=O)NNc1nnc2cccc(C)c2n1 [Compound (1c), N-hydroxy((2R)-2-{[2-(5-methyl-1,2,4-benzotriazin-3-yl)hydrazino]carbonyl}heptyl)formamide] | MIC, antibiotic with 0.25 ug/m (¼ MIC) of Azithromycin [2, 13]: 0.5 µg/mL; fold decrease MIC, antibiotic with 0.25 ug/m (¼ MIC) of Azithromycin [2, 13]: [2] fold; MIC, antibiotic with 0.5 ug/mL (½ MIC) of Azithromycin [2, 14]: 0.125 µg/mL; fold decrease MIC, antibiotic with 0.5 ug/mL (½ MIC) of Azithromycin [2, 14]: [8] fold; MIC, antibiotic alone ([2]; H. influenzae Q1, single agent (Example 8)): 1 µg/mL (≈ 2.77 µM)

SMILES | MIC [1, 8] | decrease of MIC by subinhibitory concentrations of Compound (1b) ([1]; S. pneumoniae) | MIC, antibiotic with 0.06 ug/mL (¼ MIC) of Compound (1b) [1] | MIC, antibiotic alone [1] | MIC, antibiotic with 0.5 ug/mL (¼ MIC) of Compound (1a) [2, 9] | MIC, antibiotic with 1 ug/mL (½ MIC) of Compound (1a) [2, 10] | MIC, antibiotic alone [2, 11] | MIC, antibiotic with 1 ug/mL (½ MIC) of Compound (1a) [3] | MIC, antibiotic alone [3] | decrease of MIC by subinhibitory concentrations of Compound (1a) [3] | MIC [3] | fold decrease MIC, antibiotic with 0.06 ug/mL (¼ MIC) of Compound (1b) [1] | MIC, antibiotic with […] (½ MIC) of Compound (1b) [1] | fold decrease MIC, antibiotic with […] (½ MIC) of Compound (1b) [1] | MIC, antibiotic with 0.5 ug/mL (¼ MIC) of Compound (1a) [3] | fold decrease MIC, antibiotic with 0.5 ug/mL (¼ MIC) of Compound (1a) [3] | fold decrease MIC, antibiotic with 1 ug/mL (½ MIC) of Compound (1a) [3] | further results
CC[C@H]1OC(=O)[C@H](C)[C@@H](O[C@H]2C[C@@](C)(OC)[C@@H](O)[C@H](C)O2)[C@H](C)[C@@H](O[C@@H]2O[C@H](C)C[C@H](N(C)C)[C@H]2O)[C@](C)(O)C[C@@H](C)CN(C)[C@H](C)[C@@H](O)[C@]1(C)O [Azithromycin, azithromycin] | 0.03 µg/mL (≈ 0.0401 µM) | 2-8 fold | 0.016 µg/mL | 0.03 µg/mL (≈ 0.0401 µM) | 0.25 µg/mL |  | 1 µg/mL (≈ 1.34 µM) | 0.03 µg/mL | 1 µg/mL (≈ 1.34 µM) | 8-32 fold | 1 µg/mL (≈ 1.34 µM) |  |  |  |  |  |  | MIC [4, 12]: 0.5 µg/mL; MIC, +Compound (1a) [¼ × MIC] ([4]; with ¼ × MIC of Compound (1a)): 0.25 µg/mL; MIC, +Compound (1a) [½ × MIC] ([4]; with ½ × MIC of Compound (1a)): 0.06 µg/mL; MIC [5, 12]: 1 µg/mL; MIC, +Compound (1a) [¼ × MIC] ([5]; with ¼ × MIC of Compound (1a)): 0.25 µg/mL; MIC [6, 12]: 1 µg/mL; MIC, +Compound (1a) [¼ × MIC] ([6]; with ¼ × MIC of Compound (1a)): 0.25 µg/mL; MIC [7, 12]: > 64 µg/mL; MIC, +Compound (1a) [¼ × MIC] ([7]; with ¼ × MIC of Compound (1a)): 32 µg/mL; MIC, +Compound (1a) [½ × MIC] ([7]; with ½ × MIC of Compound (1a)): 16 µg/mL
